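Growth conditions: 96-well plates. Treatment: test compound, 48 hours, 5 concentrations. Analysis: linear interpolation between bracketing concentrations; unreached endpoints set to highest concentration. The concentration for full growth arrest is given as TGI.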
Experiments:
Test in all cases: growth of human tumour cells (NCI), 48 h
MOLT-4 leukemia = system: MOLT-4 leukemia
HOP-62 NSCLC = system: HOP-62 NSCLC
HS 578T breast = system: HS 578T breast
CAKI-1 renal = system: CAKI-1 renal
SNB-75 CNS = system: SNB-75 CNS
OVCAR-5 ovarian = system: OVCAR-5 ovarian
PC-3 prostate = system: PC-3 prostate
SF-539 CNS = system: SF-539 CNS
UACC-62 melanoma = system: UACC-62 melanoma
SK-MEL-28 melanoma = system: SK-MEL-28 melanoma

Structure (SMILES)	TGI (MOLT-4 leukemia)	TGI (HOP-62 NSCLC)	TGI (HS 578T breast)	TGI (CAKI-1 renal)	TGI (SNB-75 CNS)	TGI (OVCAR-5 ovarian)	TGI (PC-3 prostate)	TGI (SF-539 CNS)	TGI (UACC-62 melanoma)	TGI (SK-MEL-28 melanoma)
N#CC1=C(N)N(/N=C/c2ccco2)C(c2ccco2)C1(C#N)C#N (configuration not stated)	30.3 µM	51.1 µM	97.2 µM	37.9 µM	36.6 µM	41.7 µM	48.5 µM	48.9 µM	42.4 µM	–
COc1cc(/C=C/C(=N\NC(N)=S)c2sc(NNC(C)=O)nc2C)ccc1O	> 100 µM	> 100 µM	> 100 µM	> 100 µM	> 100 µM	> 100 µM	> 100 µM	> 100 µM	> 100 µM	> 100 µM
C=CCOC(=O)Cn1ccc(=O)[nH]c1=O	> 100 µM	> 100 µM	> 100 µM	> 100 µM	> 100 µM	> 100 µM	> 100 µM	> 100 µM	> 100 µM	> 100 µM
COc1ccc(/C=C/C(=O)c2ccc(Br)cc2)cc1	> 100 µM	> 100 µM	> 100 µM	> 100 µM	> 100 µM	> 100 µM	> 100 µM	> 100 µM	> 100 µM	> 100 µM
CCSc1nc(N/N=C/c2cccs2)c2cnn(CO)c2n1	–	14.9 µM	15.3 µM	13.7 µM	28.7 µM	27 µM	21.4 µM	26 µM	22.5 µM	29.3 µM
Cc1ccc(S(=O)(=O)N(CCNC(=O)c2cccc(O)c2O)c2cc3c4c(c2)Oc2cccc5c2C4(C)c2c(cccc2O3)O5)cc1	> 100 µM	> 100 µM	> 100 µM	> 100 µM	> 100 µM	> 100 µM	> 100 µM	> 100 µM	> 100 µM	> 100 µM
COc1ccc(Nc2nc(N)c(C(=O)c3ccc(Cl)cc3)s2)cc1	–	17 µM	> 100 µM	13.4 µM	24.8 µM	34.7 µM	6.61 µM	0.18 µM	> 94.5 µM	> 100 µM
CCOC(=O)NN(C(=O)OCC)C(C(=O)c1ccccc1)N(NC(=O)OCC)C(=O)OCC	> 100 µM	> 100 µM	> 100 µM	> 100 µM	> 100 µM	> 100 µM	> 100 µM	> 100 µM	> 100 µM	> 100 µM
COC(=O)C(=O)C(C(=O)OC)C(=O)C(=O)Nc1c(Cl)cc([N+](=O)[O-])cc1Cl (configuration not stated)	–	> 100 µM	> 100 µM	> 100 µM	> 100 µM	> 100 µM	> 100 µM	> 100 µM	> 100 µM	> 100 µM
COC(=O)c1ccccc1C1CN=NC12Cc1ccc3c(c1C2=O)CCC3 (configuration not stated)	> 100 µM	> 100 µM	> 100 µM	> 100 µM	> 100 µM	> 100 µM	> 100 µM	> 100 µM	> 100 µM	> 100 µM
COc1ccc(-c2cc(-c3ccc(Nc4ccnc5cc(Cl)ccc45)cc3)[nH]c(=O)c2C#N)cc1	> 100 µM	> 100 µM	> 100 µM	> 100 µM	> 100 µM	> 100 µM	> 100 µM	> 100 µM	> 100 µM	> 100 µM
Cn1cc2c3ccccc3nc-2c2ccccc21	2.74 µM	4.16 µM	5.3 µM	7.79 µM	6.6 µM	6.84 µM	5.78 µM	3.66 µM	3.15 µM	6.43 µM
COc1ccc(-c2nnc3n(C)c4ccccc4n3c2=O)cc1	> 100 µM	37.5 µM	> 100 µM	> 100 µM	60.4 µM	> 100 µM	> 100 µM	> 100 µM	–	> 100 µM
O=S(=O)(c1ccccc1)c1ccc(-c2nc(-c3ccc4c(c3)Sc3ccccc3S4)cs2)cc1	> 100 µM	45.5 µM	> 100 µM	> 100 µM	25.3 µM	> 100 µM	> 100 µM	> 100 µM	> 100 µM	–
CCN(CC)CCC1CCCCN1CC(=O)N1c2cc(Cl)ccc2NC(=O)CC1C (configuration not stated)	> 100 µM	> 100 µM	> 100 µM	> 100 µM	–	> 100 µM	> 100 µM	> 100 µM	> 100 µM	> 100 µM
C(=C/c1nnnn1-c1ccccc1)/Nc1ccccc1	> 100 µM	81.6 µM	> 100 µM	> 100 µM	> 100 µM	> 100 µM	> 100 µM	64.7 µM	> 100 µM	> 100 µM
Fc1ccc(C(OCCN2CCC3CCC(C2)N3C/C=C/c2cccs2)c2ccc(F)cc2)cc1 (configuration not stated)	3.14 µM	30.2 µM	28.4 µM	23.1 µM	29 µM	25.9 µM	18.7 µM	22.5 µM	23.7 µM	19.1 µM
O=C(O)c1nn(-c2ccccc2)nc1-c1nn(-c2ccccc2)nc1C(=O)O	> 100 µM	> 100 µM	> 100 µM	> 100 µM	–	> 100 µM	> 100 µM	> 100 µM	> 100 µM	> 100 µM
